In data set [1] the test system is Human immunodeficiency virus 1. Nature of the data set: Antiviral activity against R5-tropic HIV1 cYTA48P infected in TZM-bl cells by single round assay. The format is functional, organism-based. The settings on record: Human immunodeficiency virus 1, cYTA48P.
Data set [2] in a line: Cytotoxicity against mock-infected human PM1 cells expressing CCR5 by WST method. The format is cell-based.
The next data set concerns PM1. Nature of the data set: Induction of conformational change in R5-tropic HIV1 cYTA48P gp120 infected in human PM1 cells assessed as increase in binding affinity to monoclonal antibody 4C11 at 100 uM after 15 mins by FACS analysis. The format is cell-based. Particulars: Human immunodeficiency virus 1.
In data set [3] the test system is Rhesus monkey. The data set can be described thus: Toxicity in rhesus macaque assessed as decrease in body temperature at 77.8 mg, iv after 24 hrs. The class given is organism-based, Macaca mulatta. Particulars: in vivo.
Data set [4] in a line: Toxicity in iv dosed rhesus macaque. The format is organism-based, Macaca mulatta. Particulars: rhesus monkey, in vivo.
Data set [5] concerns Rhesus monkey. Nature of the data set: Toxicity in rhesus macaque assessed as survival at 77.8 mg, iv measured after 6 months. The class given is organism-based, Macaca mulatta. The settings on record: in vivo, 4383 h.
In data set [6] the test system is Rhesus monkey. The data set can be described thus: Toxicity in rhesus macaque assessed as decrease in body temperature at 77.8 mg, iv measured within 2 hrs. The format is organism-based, Macaca mulatta. The settings on record: in vivo.
Data set [7] relates to Rhesus monkey. Nature of the data set: Toxicity in rhesus macaque assessed as mydriasis at 77.8 mg, iv measured within 2 hrs. The format is organism-based, Macaca mulatta. Particulars: in vivo.
The nature of data set [8]: Volume of distribution in rhesus macaque plasma at 75 mg, iv after 0 to 24 hrs by HPLC analysis. The format is ADME, organism-based, Macaca mulatta. Particulars: rhesus monkey.
Data set [9] can be described thus: Initial concentration in rhesus macaque blood at 75 mg, iv after 0 to 24 hrs by HPLC analysis. The format is ADME, organism-based, Macaca mulatta. Particulars: rhesus monkey.
A short description of data set [10]: Half life in rhesus macaque plasma at 75 mg, iv after 0 to 24 hrs by HPLC analysis. The settings on record: rhesus monkey. The class given is ADME, organism-based, Macaca mulatta.

The structures appear in SMILES notation.

What is called IC50 is the concentration that inhibits the measured activity by half. Broadly, the CC50 is the concentration at which the toxic effect on the cells reaches its halfway point. With `O=C(Nc1ccc2c(c1)OCO2)C(=O)NC1CC2(CCCCC2)NC2(CCCCC2)C1` (stereo not given), the IC50 in data set [1] worked out at 1.13 µM. Also, the CC50 in data set [2] is > 200 µM. Besides, in the data set with PM1, the Flu intensity stood at 6.93.

Turning to `CC1(C)CC(NC(=O)C(=O)Nc2ccc(Cl)cc2)CC(C)(C)N1`, half-maximal inhibition in data set [1] (IC50) required 0.63 µM. The midpoint of cytotoxicity in data set [2], the CC50, lay at 70.4 µM. The Flu intensity in the data set on PM1 amounted to 8.91.

As to `CCOC(=O)C1CCN(NC(=O)C(=O)Nc2ccc3c(c2)OCO3)CC1`, the IC50 in data set [1] is > 100 µM. For the same molecule, the CC50 in data set [2] is > 200 µM. Besides, the Flu intensity with PM1 is 7.83.

As for `CC1(C)CC(NC(=O)C(=O)Nc2ccc3c(c2)OCO3)CC(C)(C)N1.Cl`, the Activity entry in the data set on Rhesus monkey [3] is “Non-toxic”; in the data set with Rhesus monkey [5] it was “Non-toxic”; in the data set with Rhesus monkey [6], “Toxic”; in the data set with Rhesus monkey [7] it was “Toxic”. The molecule further had an MTD in data set [4] of 12.5 mg/kg.

For orientation: Vd means a proportionality between amount in the body and measured concentration, not a real space. For orientation: half-life means how long it takes for the measured level to halve. Turning to `CC1(C)CC(NC(=O)C(=O)Nc2ccc3c(c2)OCO3)CC(C)(C)N1` [listing 1 of 2 here], in data set [1], the IC50 came to 6.2 µM. Besides, the CC50 in data set [2] was > 300 µM. The molecule also displayed a Vd in data set [8] of 37.2 L. This molecule came in with a C0 in data set [9] of 2090 ng/mL. This molecule also had a half-life in data set [10] of 1.75 h.

On to `CC1(C)CC(NC(=O)C(=O)Nc2ccc3c(c2)OCO3)CC(C)(C)N1` [listing 2 of 2 here], for which, in the data set on PM1, the Flu intensity is 12.3.
